Reference: patent publication US20110158909A1, “Cationic Contrast Agents and Methods of Use Thereof” (Trustees of Boston University, priority 2008, published 2011)
Where two headings read alike, the source gives them in different places.

How the values were obtained:
[1] = CT imaging of normal and trypsin degraded osteochondral plugs with anionic and cationic contrast agent; design: species or system bovine; settings: for x-ray attenuation coefficient, normal vs trypsin degraded osteochondral plugs: 16 mg/mL bound iodine, overnight at 4° C., p<0.05
Experimental: In one experiment, eight osteochondral plugs (7 mm diameter) were harvested immediately after slaughter from the patella-femoral joint of three mature cows using a water-cooled, cylindrical diamond tipped cutter (See FIG. 2a for an example picture of osteochondral plugs). The plugs were divided into a normal cartilage group (n=4) and a trypsin degraded cartilage group (n=4). The osteochondral plugs of the degraded cartilage group were immersed in trypsin (2 mg/mL in 50 mM Tris, 20 mM CaCl2, pH=7.8) and incubated for 2 hours at 37° C.
All the plugs were immersed overnight in Cysto Conray II, an anionic, triiodinated contrast agent, diluted in PBS to 16 mg/mL of bound iodine at 4° C. to allow sufficient time for the contrast agent to diffuse into the cartilage. Sequential, 100μ thick, transaxial pQCT images were obtained at 70μ in plane resolution and 300μ inter-slice distance (XCT Research SA+, Stratec) for all the osteochondral plugs. The CT data were imported into Analyze™ (BIR, Mayo Clinic) to create reconstructed 3D images of the osteochondral plugs (see FIG. 2b for a representative image representing one slice of the reconstructed 3D image). A user specified contour was employed to segment the cartilage from the bone. The mean x-ray attenuation coefficient for cartilage was obtained by averaging over all pixels contained in cartilage on the transaxial CT images. The osteochondral plugs were then washed in PBS to remove the anionic contrast agent. The plugs were then re-immersed in the cationic triiodinated contrast agent at the same dilution and conditions used for the anionic contrast agent and repeat CT imaging of the osteochondral plugs was performed.
The GAG content of the articular cartilage was measured using a dimethylmethylene blue (DMMB) assay. A razor blade was used to separate the articular cartilage from the subchondral bone and the cartilage was stored at −20° C. After weighing the hydrated cartilage, it was lyophilized and weighed dry. The cartilage was digested with papain at 65° C. for 24 hours and diluted 10 to 100 times for the assay. Accounting for the dilution, the total GAG weight per mg cartilage dry weight was calculated.
The GAG content measured directly; the x-ray attenuation measured by CT for the anionic and cationic contrast agents were compared for the normal and trypsin degraded articular cartilage plugs using 1-way.ANOVA. Further, the x-ray attenuation measured by CT for both the anionic and cationic contrast agents was expressed as a function of the measured GAG content. The slopes of these relationships were compared to assess the relative sensitivity of these contrast agents to measure differences in the GAG content of articular cartilage.

[2] = Passive diffusion of contrast agents into and out of articular cartilage, quantitative CT; design: species or system bovine; settings: for average CT attenuation: time=5 h to time=24 h of immersion in contrast agent, 27 mg iodine/mL, pH 6.8, n=4
Experimental: The diffusion characteristics of the contrast agents were evaluated using bovine osteochondral plugs. Two cationic contrast agents, 4 and 6, were compared to a commercially-available singly-charged anionic contrast agent, iothalamate (Cysto Conray II®). Three groups of osteochondral plugs were prepared (n=4)—one for each contrast agent. The plugs were immersed in aqueous contrast agent solution (27 mg of organically-bound iodine/mL, pH 6.8) and removed at 1, 2, 4, 6, 18, and 24 h for imaging using quantitative CT (QCT). Following diffusion into the cartilage, the osteochondral plugs were immersed in saline solution and imaged at the same time points to monitor the diffusion of the contrast agent out of the cartilage. Articular cartilage has a natural anisotropic distribution of GAGs, with low GAG content in the superficial zone and higher GAG content in the middle and deep zones. This anisotropic distribution of GAG was reflected by the variation in x-ray attenuation in the CT images (FIG. 5B). […] In order to determine the initial rates of diffusion into the cartilage tissue, linear regression analyses were applied to the contrast-enhanced CT attenuation data for each osteochondral plug after immersion for 0, 1, and 2 h (Table 1). The slope represents the average rate of diffusion for each contrast agent. Cationic contrast agents 4 and 6 diffuse into cartilage 1.77 and 1.65 times faster, respectively, than the anionic agent iothalamate (FIG. 6).

[3] = Cartilage degradation study (chondroitinase ABC): CT attenuation vs GAG content by DMMB assay; design: species or system bovine; settings: for slope of linear regression, average CT intensity vs GAG content: GAG content as 100×(mg of GAG)/(mg of hydrated cartilage)
Text: In order to evaluate the ability of the contrast agents to diagnose an OA state, the hyaline cartilage of the osteochondral plugs was enzymatically degraded to mimic the GAG depletion observed in early OA by exposing the hyaline cartilage to different concentrations of the polysaccharide-specific hydrolase, chondroitinase ABC. After degradation, the same set of osteochondral plugs was exposed to each contrast agent consecutively, enabling a direct comparison of the resulting data. The average CT attenuation for each group was plotted as a function of the GAG content obtained by the DMMB assay and subjected to linear regression analysis (FIG. 7A). […] The variation in CT attenuation effected by diffusion of cationic contrast agent 6, with four positive charges, into the hyaline cartilage accounted for 79% of the variation in cartilage GAG, whereas the variation in CT attenuation effected by diffusion of cationic contrast agent 4, with a single positive charge, accounted for 56% of the variation in cartilage GAG. In comparison, the diffusion of anionic contrast agent iothalamate with a single negative charge accounted for 52% of the variation in cartilage GAG. The slope of the regression line represents the sensitivity of contrast enhanced CT attenuation of cartilage to changes in the GAG content of the cartilage. The cationic contrast agents were more sensitive (4: 1.4× and 6: 5.3×) to changes in cartilage GAG content than the anionic contrast agent iothalamate.

[4] = microCT imaging of intact rabbit femur; settings: magnified view of cartilage surface, FIG. 8B
Text: Contrast agent 6 was chosen for use in a rabbit femur study to highlight the ability of the cationic contrast agent to portray the variation in cartilage GAG concentration and cartilage thickness in an intact rabbit femur. […] The contrast-enhanced CT image was able to define the anisotropic distribution of GAG through the depth of the articular cartilage. […] The contrast enhanced CT image of the femur can also be used to determine the variable thickness of the articular cartilage. […] Cartilage thickness is greater at the femoral groove than at the condyles.

[5] = 2 h immersion in contrast agent

level of CT attenuation in CT images of degraded and undegraded plugs [3] | relation of CT attenuation to GAG content [3] | sensitivity to changes in cartilage GAG content relative to iothalamate (slope of regression line) [3] [×] | variation in cartilage GAG accounted for by variation in CT attenuation [3] [%] | slope of linear regression, average CT intensity vs GAG content [3] | level of CT attenuation in CT images of degraded and undegraded plugs ([3]; after equilibrium in contrast agent, FIG. 7B) | SMILES | x-ray attenuation coefficient, normal vs trypsin degraded osteochondral plugs [1] | sensitivity of relative change in x-ray attenuation to change in GAG content, compared to anionic contrast agent ([1]; normal vs trypsin degraded plugs) [×] | enhancement of CT images of cartilage tissue ([1]; osteochondral plugs) | CT attenuation of cartilage in CT images [2, 5] | CT attenuation of cartilage in CT images ([2]; after 24 h in saline) | x-ray attenuation higher compared to iothalamate ([2]; after equilibration (24 h)) [%] | initial rate of diffusion into cartilage relative to iothalamate ([2]; linear regression of CT attenuation at 0, 1 and 2 h) [times faster] | average CT attenuation [2] | sensitivity to distribution of GAG in cartilage surface [4] | reflection of anisotropic GAG distribution (deep vs superficial zone) in CT images ([2]; FIG. 5B) | CT attenuation of cartilage in CT images ([2]; after 2 h of immersion in saline) | removal from cartilage on immersion in saline ([2]; after immersion in saline for 6 hours)
– | – | – | – | – | – | NCCNC(=O)c1c(I)c(N)c(I)c(C(=O)NCCN)c1I [contrast agent 2] | greater than that for the trypsin degraded osteochondral plugs | 4.3 | capable of enhancing CT images of the cartilage tissue | – | – | – | – | – | – | – | – | –
high levels of CT attenuation | directly proportional | 5.3 | 79 | 13758 | – | NCCNC(=O)c1c(I)cc(I)c(N)c1I [contrast agent 6] | – | – | – | medium levels | still showed medium levels of CT attenuation | ~60 | 1.65 | 900-1100 | sensitive to the variable distribution of GAG throughout the cartilage surface | – | – | –
– | indirectly related | – | 52 | negative slope | low levels of CT attenuation | CNC(=O)c1c(I)c(NC(C)=O)c(I)c(C(=O)O)c1I [iothalamate, reference compound] | inverse relation | – | – | very little change | – | – | – | 500-600 | – | less sensitive to subtle changes in the GAG content | began to decline | almost completely removed
